Experimental data published in BindingDB's records for patent US12509454 (Ideaya Biosciences, 2025).

Biological target: T1, DNA polymerase theta [1-899] (UniProt O75417)
T1 construct: 1-899
Test: ATPase activity of Pol theta (1-899) was determined using the assay
Protocol: Pol Theta ATPase activity was determined by measuring the rate of ATP turn over in a NADH oxidation-coupled enzymatic assay. 10-point dilution series of compounds were used in a 384 well format for the inhibition assays. Pol theta (1-899) (10 nM) in assay buffer (20 mM Tris HCl (pH 7.80), 80 mM KCl, 10 mM MgCl2, 1 mM DTT, 0.01% BSA, 0.01% Tween, 5% glycerol) was transferred to the test wells (20 μL), except the low control wells (20 μL of assay buffer was added to the low control wells). The plate was then incubated at room temperature for 15 min. An equal volume (20 μL) of 100 μM ATP, 300 nM dT50 (single-stranded DNA (ssDNA) containing 50 thymine bases), 300 μM NADH, 6 mM PEP, 10 U/mL lactate dehydrogenase and 20 U/mL pyruvate kinase in assay buffer was added to all the test wells. The plate was then centrifuged at 1000 rpm for 1 min. The reaction was monitored for 30 min by measuring absorbance (λ=340 nm) in a Tecan Spark multimode plate reader every minute. The high control (DMSO with enzyme) with low absorbance intensity represents no inhibition of ATPase reaction while the low control (DMSO with buffer) with high absorbance intensity represents full inhibition of ATPase activity. Slope of the reaction progress curves were used to calculate the rate of ATP hydrolysis.

T1 sequence (O75417 1-899): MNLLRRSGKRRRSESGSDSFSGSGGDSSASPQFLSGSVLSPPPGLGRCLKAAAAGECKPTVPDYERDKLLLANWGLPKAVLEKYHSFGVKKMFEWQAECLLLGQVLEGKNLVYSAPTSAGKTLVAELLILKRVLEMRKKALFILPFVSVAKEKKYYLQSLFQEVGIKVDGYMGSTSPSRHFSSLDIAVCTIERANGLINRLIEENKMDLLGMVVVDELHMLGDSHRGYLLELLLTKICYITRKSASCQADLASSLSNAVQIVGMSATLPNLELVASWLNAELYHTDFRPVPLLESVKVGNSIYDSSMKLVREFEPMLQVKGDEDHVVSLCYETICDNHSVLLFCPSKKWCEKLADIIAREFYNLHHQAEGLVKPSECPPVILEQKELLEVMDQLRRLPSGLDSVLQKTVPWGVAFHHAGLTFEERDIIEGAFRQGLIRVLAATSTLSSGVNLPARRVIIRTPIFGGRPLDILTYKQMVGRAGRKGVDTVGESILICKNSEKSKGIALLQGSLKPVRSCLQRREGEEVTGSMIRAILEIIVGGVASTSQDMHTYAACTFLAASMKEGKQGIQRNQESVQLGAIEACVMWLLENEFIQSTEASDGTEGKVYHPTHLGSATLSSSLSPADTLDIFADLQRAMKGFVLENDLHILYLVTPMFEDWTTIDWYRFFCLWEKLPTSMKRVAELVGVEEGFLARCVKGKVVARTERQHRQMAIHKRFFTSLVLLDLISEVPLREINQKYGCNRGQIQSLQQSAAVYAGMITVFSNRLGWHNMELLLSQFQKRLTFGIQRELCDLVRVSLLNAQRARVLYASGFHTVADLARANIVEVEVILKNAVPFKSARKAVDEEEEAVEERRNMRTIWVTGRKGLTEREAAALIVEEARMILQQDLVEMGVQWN

Row | IC50 | SMILES
1 | < 200 nM | O=C(Nc1nnc(OCc2ccc(Cl)cc2)s1)c1ccncc1N1CCO[C@@H]2C[C@@H]21 (mixture of isomers) [US12509454, Compound 178]
2 | > 1000 nM | O=C(Nc1nnc(OCc2ccc(Cl)cc2)s1)c1cccnc1N1CCC(O)CC1 [US12509454, Compound 20]
3 | > 1000 nM | CC(C)(O)C#Cc1ccc(C(=O)Nc2nnc(OCc3ccc(Cl)cc3)s2)c(N2CCOCC2)n1 [US12509454, Compound 29]
4 | < 200 nM | N#Cc1cc(-c2c(F)cccc2OC(F)F)c(C(=O)Nc2nnc(OCc3ccc(Cl)cn3)s2)cn1 [US12509454, Compound 193]
